Test results: ChEMBL document CHEMBL1157355, “Recent advances on phosphodiesterase 4 inhibitors for the treatment of asthma and chronic obstructive pulmonary disease” (J Med Chem, 2008)

Tests used:
[1] = Displacement of [3H]rolipram from PDE4 by RBA
[2] = Inhibition of PDE4
[3] = Toxicity in rat stomach assessed as reduction in ability to increase acid secretion; type: tissue-based
[4] = target: T1, 3',5'-cyclic-AMP phosphodiesterase 4A (Homo sapiens, UniProt P27815); test: Inhibition of GST-tagged PDE4A
T1 sequence (P27815 whole entry): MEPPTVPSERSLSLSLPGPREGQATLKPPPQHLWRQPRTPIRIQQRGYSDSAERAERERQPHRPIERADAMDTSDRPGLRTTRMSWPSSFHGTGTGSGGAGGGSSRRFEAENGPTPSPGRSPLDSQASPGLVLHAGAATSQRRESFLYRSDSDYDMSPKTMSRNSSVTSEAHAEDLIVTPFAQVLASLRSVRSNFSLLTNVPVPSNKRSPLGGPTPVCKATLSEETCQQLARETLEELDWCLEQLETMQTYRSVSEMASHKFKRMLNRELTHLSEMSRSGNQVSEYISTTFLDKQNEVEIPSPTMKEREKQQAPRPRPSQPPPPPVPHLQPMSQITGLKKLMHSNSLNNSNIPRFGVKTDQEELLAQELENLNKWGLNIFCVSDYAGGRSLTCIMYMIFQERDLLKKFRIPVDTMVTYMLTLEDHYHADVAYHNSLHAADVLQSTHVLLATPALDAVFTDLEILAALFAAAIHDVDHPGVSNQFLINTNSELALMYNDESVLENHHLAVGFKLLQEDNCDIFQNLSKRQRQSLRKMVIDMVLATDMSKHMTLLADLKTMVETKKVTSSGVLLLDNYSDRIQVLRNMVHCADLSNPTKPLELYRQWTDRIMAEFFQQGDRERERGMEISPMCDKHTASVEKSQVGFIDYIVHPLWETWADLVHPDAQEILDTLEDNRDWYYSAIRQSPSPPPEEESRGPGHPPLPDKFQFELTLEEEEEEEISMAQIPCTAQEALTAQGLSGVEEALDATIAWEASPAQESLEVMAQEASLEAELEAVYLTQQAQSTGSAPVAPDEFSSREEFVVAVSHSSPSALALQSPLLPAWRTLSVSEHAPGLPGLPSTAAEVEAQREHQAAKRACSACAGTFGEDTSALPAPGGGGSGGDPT

[5] = target: Phosphodiesterase 3 (Homo sapiens, UniProt Q14432+Q13370); test: Inhibition of PDE3 in human platelet
[6] = Inhibition of PDE4 in dog trachea; type: tissue-based, Canis lupus familiaris
[7] = test system: Blood; test: Inhibition of TNFalpha release in human whole blood; type: functional, tissue-based
[8] = test system: Rattus norvegicus; test: Inhibition of TNFalpha production in po dosed rat; type: functional; conditions: read-out: ID50 (the source's name)
[9] = test system: Rattus norvegicus; test: Inhibition of SRS-A-induced bronchoconstriction in rat at 10 mg/kg; type: functional
[10] = Oral bioavailability in rat; type: ADME, organism-based; conditions: in vivo
[11] = test system: Cavia porcellus; test: Inhibition of eosinophil infiltration in guinea pig at 30 umol/kg, ip; type: functional
[12] = test system: Rattus norvegicus; test: Inhibition of LPS-induced pulmonary inflammation in rat at 3 mg/kg, po; type: functional
[13] = Inhibition of PDE11
[14] = Inhibition of PDE10
[15] = test system: Blood; test: Inhibition of LPS-induced TNFalpha release in human whole blood; type: functional, tissue-based
[16] = target: 3',5'-cyclic-AMP phosphodiesterase 4C (Homo sapiens, UniProt Q08493); test: Inhibition of human PDE4C
Chain of 3',5'-cyclic-AMP phosphodiesterase 4C (Q08493 whole entry): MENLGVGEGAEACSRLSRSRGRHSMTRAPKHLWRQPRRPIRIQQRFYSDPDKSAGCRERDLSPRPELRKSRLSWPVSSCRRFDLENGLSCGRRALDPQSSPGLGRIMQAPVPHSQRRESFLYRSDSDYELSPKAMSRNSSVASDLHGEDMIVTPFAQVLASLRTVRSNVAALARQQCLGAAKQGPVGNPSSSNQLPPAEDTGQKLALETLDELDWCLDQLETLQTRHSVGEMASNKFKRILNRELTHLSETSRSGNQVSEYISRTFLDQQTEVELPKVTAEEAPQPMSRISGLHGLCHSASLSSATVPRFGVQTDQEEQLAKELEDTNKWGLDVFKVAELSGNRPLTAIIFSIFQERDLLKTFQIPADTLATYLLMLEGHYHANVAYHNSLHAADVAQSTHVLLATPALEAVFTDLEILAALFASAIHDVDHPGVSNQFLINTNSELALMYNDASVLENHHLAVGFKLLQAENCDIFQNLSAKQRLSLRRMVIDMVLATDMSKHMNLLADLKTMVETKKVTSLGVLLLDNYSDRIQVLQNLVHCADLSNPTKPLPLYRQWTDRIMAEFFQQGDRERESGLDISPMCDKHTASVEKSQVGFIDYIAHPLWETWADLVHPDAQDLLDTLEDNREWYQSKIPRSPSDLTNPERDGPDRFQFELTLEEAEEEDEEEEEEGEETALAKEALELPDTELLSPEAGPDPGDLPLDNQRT

[17] = target: 3',5'-cyclic-AMP phosphodiesterase 4D (Homo sapiens, UniProt Q08499); test: Inhibition of human PDE4D
Chain of 3',5'-cyclic-AMP phosphodiesterase 4D (Q08499 whole entry): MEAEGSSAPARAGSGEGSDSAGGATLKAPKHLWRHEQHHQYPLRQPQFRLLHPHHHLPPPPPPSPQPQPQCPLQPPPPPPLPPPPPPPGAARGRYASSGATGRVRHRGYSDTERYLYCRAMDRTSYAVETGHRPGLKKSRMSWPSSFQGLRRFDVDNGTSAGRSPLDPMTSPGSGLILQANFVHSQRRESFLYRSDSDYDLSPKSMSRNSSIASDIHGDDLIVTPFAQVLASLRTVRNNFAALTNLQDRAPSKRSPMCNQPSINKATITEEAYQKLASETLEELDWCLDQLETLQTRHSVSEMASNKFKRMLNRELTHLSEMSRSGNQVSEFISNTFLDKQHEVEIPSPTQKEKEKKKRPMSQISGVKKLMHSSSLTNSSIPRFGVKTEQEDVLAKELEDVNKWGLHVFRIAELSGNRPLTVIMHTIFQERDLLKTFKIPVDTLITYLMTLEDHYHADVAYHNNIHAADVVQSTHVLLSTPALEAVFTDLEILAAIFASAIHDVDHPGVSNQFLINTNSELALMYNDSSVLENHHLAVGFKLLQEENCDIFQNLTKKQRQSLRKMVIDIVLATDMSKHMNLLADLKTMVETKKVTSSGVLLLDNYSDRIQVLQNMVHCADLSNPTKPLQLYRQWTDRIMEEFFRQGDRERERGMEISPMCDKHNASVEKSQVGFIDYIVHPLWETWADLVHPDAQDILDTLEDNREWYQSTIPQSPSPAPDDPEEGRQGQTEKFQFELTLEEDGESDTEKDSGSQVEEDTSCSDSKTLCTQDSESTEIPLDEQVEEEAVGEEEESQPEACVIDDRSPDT

[18] = test system: Blood; test: Inhibition of fMLP-induced LTB4 biosynthesis in human whole blood; type: functional, tissue-based
[19] = target: T1, 3',5'-cyclic-AMP phosphodiesterase 4A; test: Inhibition of human PDE4A
[20] = test system: Rattus norvegicus; test: Inhibition of TNFalpha production in rat at 10 mg/kg, po; type: functional
[21] = Binding affinity to PDE4 catalytic domain
[22] = Cmax in ferret; type: ADME, organism-based, Mustela putorius furo; conditions: in vivo
[23] = test system: Cavia porcellus; test: Inhibition of lung eosinophila in guinea pig at 10 mg.kg, po; type: functional
[24] = Oral bioavailability in guinea pig at 3 mg/kg; type: ADME, organism-based, Cavia porcellus; conditions: in vivo
[25] = Selectivity for PDE4D over PDE4A
[26] = test system: Rattus norvegicus; test: Inhibition of gastric emptying in po dosed rat; type: functional; conditions: Stomach, read-out: ID50 (the source's name)
[27] = Selectivity for PDE4D over PDE4C
[28] = Selectivity for PDE4D over PDE4B
[29] = Displacement of [3H]rolipram from PDE4 at 10 uM by RBA
[30] = test system: Cavia porcellus; test: Inhibition of aerosolized antigen-induced airway obstruction in po dosed guinea pig; type: functional
[31] = test system: Rhesus monkey; test: Reduction in IL1-beta response to antigen challenge in atopic monkey at 10 mg/kg, po; type: functional, Macaca mulatta; design: scale not given: the % may be the effect or the level left
[32] = test system: Rhesus monkey; test: Reduction in neutrophil response to antigen challenge in atopic monkey at 10 mg/kg, po; type: functional, Macaca mulatta; design: scale not given: the % may be the effect or the level left
[33] = test system: Rhesus monkey; test: Reduction in eosinophil response to antigen challenge in atopic monkey at 10 mg/kg, po; type: functional, Macaca mulatta; design: scale not given: the % may be the effect or the level left

For `COc1ccc2c(Cc3c(Cl)cncc3Cl)nncc2c1OC1CCCC1`, the Ki [1] was 149 nM, the IC50 [2] was 53 nM and the IC50 [3] was 7000 nM.
`COc1ccc([C@H](Cc2ccncc2)c2ccccc2)cc1OC1CCCC1` [CDP840] showed an IC50 [4] of 4.2 nM and a Ki [1] of 16 nM.
`COc1cc(-c2ccc(=O)[nH]n2)ccc1OC(F)F` [ZARDAVERINE] gave a pIC50 [5] of 6.24 and a pIC50 [6] of 6.8.
For `O=C1CCC(N2C(=O)c3ccccc3C2=O)C(=O)N1` (centres undefined) [THALIDOMIDE], the IC50 ([7]; read-out: IC50) was 200000 nM.
Work on `Cc1ccccc1-n1c(=O)n(Cc2cccs2)c(=O)c2[nH]cnc21` yielded a Ki [1] of 1020 nM and an IC50 [2] of 4200 nM.
With `COC(=O)N1CC[C@H](Oc2cccc(Nc3c(C(N)=O)cnc4c3c(C)nn4C)c2)C1` the ED50 [8] was 1 mg/kg, the inhibition in vivo at 10 mg/kg [9] was 50% and the bioavailability [10] was 33%. The IC50 [2] was 10 nM.
Molecule `Oc1ccc2c(Cc3c(Cl)cncc3Cl)nnc(-c3ccccc3)c2c1` has an inhibition in vivo at 30 µmol/kg [11] of 34%, a Ki [1] of 271 nM and a bioavailability [10] of 27%. It also gave an IC50 [2] of 37 nM and an IC50 ([7]; read-out: IC50) of 46 nM.
Work on `COc1ccc(-c2nc(C(=O)N3CCN(c4ncccn4)CC3)c(CN)o2)c2ccc(C(F)(F)F)nc12` yielded an inhibition in vivo at 3 mg/kg [12] of 64%, an IC50 [13] of 2000 nM and an IC50 [14] of 430 nM.
Work on `CC(C)C(=O)c1c(C(C)C)nn2ccccc12` [IBUDILAST] yielded an IC50 [15] of 6200 nM, an IC50 [16] of 239 nM and an IC50 [17] of 166 nM. The IC50 [18] was 2500 nM and the IC50 [19] was 54 nM.
With `COc1ccc2c(Cc3c(Cl)cncc3Cl)nnc(-n3cncn3)c2c1` the inhibition in vivo at 30 µmol/kg [11] was 34%, the Ki [1] was 383 nM and the IC50 [2] was 241 nM. For the same molecule, the IC50 ([7]; read-out: IC50) was 72 nM.
For `COc1ccc([C@]2(C#N)C[C@H]3C[C@@H](C(=O)O)C[C@H]3C2)cc1OC1CCCC1`, the IC50 [2] was 9 nM and the IC50 ([7]; read-out: ID50 (the source's name)) was 21000 nM.
In the case of `COc1cc2c3c(c1)C(c1ccccc1)=N[C@@H](NC(=O)c1cccnc1)C(=O)N3CC2`, the IC50 [2] is reported as 4300 nM.
For `COc1ccc(C(CC(N)=O)N2C(=O)c3ccccc3C2=O)cc1OC1CCCC1` (centres undefined) [CDC-801], the IC50 [2] was 1100 nM and the IC50 ([7]; read-out: IC50) was 2500 nM.
For `Cc1nn(C)c2ncc(C(N)=O)c(Nc3ccccc3)c12`, the inhibition in vivo at 10 mg/kg [20] was 48% and the IC50 [2] was 40 nM.
`COCc1nc2c(OC)ccc(C(=O)Nc3c(Cl)cncc3Cl)c2[nH]1` gave a Ki [1] of 25 nM.
With `COc1ccc(C2CNC(=O)C2)cc1OC1CCCC1` (centres undefined) [ROLIPRAM] the Ki [21] was 60 nM.
`O=S(=O)(Nc1cccc(-c2cc(Cc3ccncc3)cc3cccnc23)c1)c1ccccc1` gave a Cmax [22] of 2000 nM and an IC50 ([7]; read-out: IC50) of 7800 nM.
For `COCc1cc2c(C(=O)Nc3c(Cl)cncc3Cl)cnc(OC)c2o1`, the “inhibition (INH)” value [23] was 40%, the IC50 [1] was 84 nM and the bioavailability [24] was 54%. For the same molecule, the IC50 [2] was 14 nM.
In the case of `COc1ccc([C@]2(C#N)CC[C@@H](C(=O)O)CC2)cc1OC1CCCC1` [CILOMILAST], the Selectivity ratio [25] is reported as 10, the ED50 [26] is reported as 4.7 mg/kg and the Selectivity ratio [27] is reported as 10. The Selectivity ratio [28] was 10, the IC50 [2] was 65 nM and the IC50 ([7]; read-out: IC50) was 840 nM.
For `COc1ccc(S(=O)(=O)NC2CCc3ccccc32)cc1OC` (centres undefined), the RBA [29] was 14% and the IC50 [2] was 6000 nM.
For `CCc1nn(C2CCCC2)c2c1CCN(c1ccccc1C)C2=O`, the ED50 [30] was 2 mg/kg, the Activity [31] was 82% and the Activity [32] was 65%. For the same molecule, the Activity [33] was 55%.
`Cc1cc2c3c(c1)C(c1ccccc1)=N[C@@H](NC(=O)c1ccncc1)C(=O)N3CC2` showed an IC50 [2] of 1100 nM.
